≈ marks a conversion by molar mass, not a printed value. Read-outs that look alike come from different tables or passages of the source.
Legend:
[1] = tested on: clinical isolates carrying AAC(3)-IV; experiment: MIC broth microdilution, AAC(3)-IV; format: cell-based; conditions: for MIC: read-out: MIC AAC(3)-IV
Procedure, shortened: (§1)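 Clinical isolates supplied by the Zurich Institute of Medical Microbiology were tested for MIC (μg/ml) using CLSI M07-A10 broth microdilution.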

[2] = tested on: clinical isolates carrying APH(3′)-I; experiment: MIC broth microdilution, APH(3′)-I; format: cell-based; conditions: IMM Univ. Zurich
Excerpt: (§2) Minimal inhibitory concentrations (MIC) have been determined by broth microdilution assays (CLSI. Methods for Dilution Antimicrobial Susceptibility Tests for Bacteria That Grow Aerobically; Approved Standard—Tenth Edition. CLSI document M07-A10. Wayne, Pa.: Clinical and Laboratory Standards Institute; 2015.).
(§3) Minimal inhibitory concentrations (MICs, […]) against clinical isolates from Institute of Medical Microbiology, Univ. Zurich, and the IC50 values for bacterial, human mitochondrial and human cytosolic ribosomes are indicated.

[3] = tested on: clinical isolates carrying APH(3′)-II; experiment: MIC broth microdilution, APH(3′)-II; format: cell-based; conditions: read-out: MIC APH(3′)-II
Excerpt: as §2, §3

[4] = tested on: clinical isolates carrying APH(3′)-VI; experiment: MIC broth microdilution, APH(3′)-VI; format: cell-based; conditions: IMM Univ. Zurich
Excerpt: as §2, §3

bacterial ribosomes = experiment: in-vitro translation assay, bacterial ribosomes; format: biochemical
Procedure, shortened: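 Inhibitory potency was determined as IC50 in in-vitro translation systems based on bacterial ribosomes, human chimeric (mitochondrial-type) ribosomes or rabbit reticulocyte (cytosolic) ribosomes.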

[5] = tested on: human mitochondrial ribosomes; experiment: in-vitro translation assay, human mitochondrial (human chimeric) ribosomes; format: biochemical
Procedure, shortened: (§4)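 Translation inhibition is measured in vitro with isolated ribosomes, and IC50 derived. The human cytosolic values actually use rabbit reticulocyte ribosomes, and the mitochondrial values use human chimeric ribosomes.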

[6] = tested on: human cytosolic ribosomes; experiment: in-vitro translation assay, human cytosolic ribosomes; format: biochemical
Procedure, shortened: as §4

[7] = tested on: AG212, Escherichia coli ATCC25922; experiment: MIC reference strain AG212; format: cell-based; conditions: reference strain ATCC25922
Procedure, shortened: (§5)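 Broth microdilution per CLSI standard (aerobic bacteria); value reported is the MIC.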

[8] = tested on: AG215, Klebsiella pneumonia; experiment: MIC reference strain AG215; format: cell-based; conditions: reference strain
Procedure, shortened: as §5

[9] = tested on: AG290, Enterobacter cloacae; experiment: MIC reference strain AG290; format: cell-based; conditions: reference strain
Procedure, shortened: as §5

[10] = tested on: AG220, Pseudomonas aeruginosa ATCC27853; experiment: MIC reference strain AG220; format: cell-based
Procedure, shortened: as §5

[11] = tested on: AG225, Acinetobacter baumannii pittii; experiment: MIC reference strain AG225; format: cell-based; conditions: reference strain
Procedure, shortened: as §5

ATCC19977 M. abcessus = experiment: MIC reference strain ATCC19977; format: cell-based
Procedure, shortened: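 Susceptibility was tested per CLSI aerobic dilution protocol using microbroth format, with the MIC taken as the end point.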

AG001 E. coli WT = experiment: Antibacterial activity, clinical isolate AG001; format: cell-based; design: unit not given here
Procedure, shortened: (§6)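 Broth microdilution, CLSI dilution method for aerobic bacteria; read-out is minimal inhibitory concentration (MIC).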

AG055 E. coli WT = experiment: Antibacterial activity, clinical isolate AG055; format: cell-based; design: unit not given here
Excerpt: as §2
(§7) Table 4 and 5 show the antibacterial activity of the compounds of the invention against bacterial reference strains (table 4) and against representative clinical isolates (table 5).

AG003 E. coli AAC(3)-II = experiment: Antibacterial activity, clinical isolate AG003; format: cell-based; design: unit not given here
Excerpt: as §2, §7

AG173 E. coli AAC(3)-IV = experiment: Antibacterial activity, clinical isolate AG173; format: cell-based
Procedure, shortened: as §6

AG163 E. coli APH(3′)-I = experiment: Antibacterial activity, clinical isolate AG163; format: cell-based; design: unit not given here
Excerpt: as §2, §7

AG038 MRSA = experiment: Antibacterial activity, clinical isolate AG038; format: cell-based; design: unit not given here
Procedure, shortened: as §6

[12] = tested on: AG039 MRSA AAC(6′)-I ANT(4′)-I; experiment: Antibacterial activity, clinical isolate AG039; format: cell-based
Excerpt: as §2, §7

[13] = tested on: AG042 MRSA AAC(6′)-I ANT(4′)-I APH(2′); experiment: Antibacterial activity, clinical isolate AG042; format: cell-based; design: unit not given here
Excerpt: as §2, §7

AG031 P. aer. APH(3′)-II = experiment: Antibacterial activity, clinical isolate AG031; format: cell-based; design: unit not given here
Procedure, shortened: as §6

AG032 P. aer. APH(3′)-II = experiment: Antibacterial activity, clinical isolate AG032; format: cell-based; design: unit not given here
Excerpt: as §2, §7

[14] = tested on: AG033 P. aer. APH(3′)-II AAC(6′)-I; experiment: Antibacterial activity, clinical isolate AG033; format: cell-based; design: unit not given here
Excerpt: as §2, §7

[15] = tested on: Engineered E. coli pH430 WT; experiment: Activity, engineered E. coli pH430 WT; format: cell-based; design: unit not given here; conditions: wild type
Procedure, shortened: (§8)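 Susceptibility was measured as minimal inhibitory concentration using a standardized broth microdilution protocol (CLSI document M07-A10).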

[16] = tested on: Engineered E. coli AG103 armA; experiment: Activity against G1405-methylated 16S-rRNA, E. coli AG103 armA; format: cell-based
Excerpt: as §2

[17] = tested on: Engineered E. coli pH424 armA; experiment: Activity against G1405-methylated 16S-rRNA, E. coli pH424 armA; format: cell-based
Procedure, shortened: as §8

[18] = tested on: Engineered E. coli pH425 rmtB; experiment: Activity against G1405-methylated 16S-rRNA, E. coli pH425 rmtB; format: cell-based
Excerpt: as §2

[19] = tested on: Engineered E. coli pH426 rmtC; experiment: Activity against G1405-methylated 16S-rRNA, E. coli pH426 rmtC; format: cell-based
Excerpt: as §2

[20] = tested on: Engineered E. coli pH427 rmtF; experiment: Activity against G1405-methylated 16S-rRNA, E. coli pH427 rmtF; format: cell-based
Excerpt: as §2

WT clinical isolates = experiment: MIC broth microdilution, WT; format: cell-based; conditions: wild type
Procedure, shortened: as §1

isolates carrying apmA = experiment: MIC broth microdilution, apmA; format: cell-based; conditions: apmA resistance gene
Procedure, shortened: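 Clinical isolates carrying apmA, from the University of Zurich Institute of Medical Microbiology, were tested by broth microdilution following CLSI M07-A10; values are MICs in μg/ml.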

[21] = tested on: SZ380, Mycobacterium smegmatis; experiment: MIC reference strain SZ380; format: cell-based; conditions: reference strain
Procedure, shortened: as §5

[22] = tested on: E. coli AG153 AAC(3)-II APH(3′)-II rmtB; experiment: Activity against G1405-methylated 16S-rRNA, clinical isolate AG153; format: cell-based; design: unit not given here
Excerpt: as §2

[23] = tested on: K. pneum. AG269 AAC(3)-II AAC(6′)-I rmtB; experiment: Activity against G1405-methylated 16S-rRNA, clinical isolate AG269; format: cell-based
Excerpt: as §2

[24] = tested on: Enterob. AG302 AAC(3)-II AAC(6′)-I rmtC; experiment: Activity against G1405-methylated 16S-rRNA, clinical isolate AG302; format: cell-based
Excerpt: as §2

[25] = tested on: A baum. AG227 APH(3′)-I armA; experiment: Activity against G1405-methylated 16S-rRNA, clinical isolate AG227; format: cell-based
Excerpt: as §2

[26] = tested on: clinical isolates carrying APH(3′)-III; experiment: MIC broth microdilution, APH(3′)-III; format: cell-based; conditions: IMM Univ. Zurich
Excerpt: as §2, §3

[27] = clinical isolates, IMM Univ. Zurich, AAC(3)-IV

SMILES: CNC1C(OC2OC(CO)C(N)C(O)C2O)OC2CC(N)C(OC3C(N)CC(N)C(O)C3OC3OC(CO)C(O)C3O)OC2C1O [DC131, 5-O—(β-D-Ribefuranosyl) apramycin]
- activity against the IMM clinical isolates carrying the gene for AAC(3)-IV [1]: no activity
- MIC [1, 27]: > 32 mg/L
- MIC [2]: 64 mg/L (≈ 95.3 µM)
- MIC ([3]; clinical isolates, IMM Univ. Zurich, APH(3′)-II): 8 mg/L (≈ 11.9 µM)
- MIC [4]: 4 mg/L (≈ 5.96 µM)
- IC50 (bacterial ribosomes): 0.11 µM
- IC50 [5]: 295 µM
- IC50 [6]: 319 µM
- MIC ([7]; Escherichia coli, read-out: MIC AG212 E. coli): 8 mg/L
- MIC ([8]; Klebsiella pneumoniae, read-out: MIC AG215 K. pneumonia): 2 mg/L
- MIC ([9]; Enterobacter cloacae, read-out: MIC AG290 E. cloacae): 4 mg/L
- MIC ([10]; Pseudomonas aeruginosa, ATCC27853, reference strain ATCC27853, read-out: MIC AG220 P. aeruginosa): 64 mg/L
- MIC ([11]; Acinetobacter baumannii, read-out: MIC AG225 A. baumannii): 16 mg/L
- MIC (ATCC19977 M. abcessus; read-out: MIC ATCC19977 M. abcessus): 16 mg/L (≈ 23.8 µM)
- Antibacterial activity AG001 E. coli WT (AG001 E. coli WT): 16
- Antibacterial activity AG055 E. coli WT (AG055 E. coli WT): 16-32
- Antibacterial activity AG003 E. coli AAC(3)-II (AG003 E. coli AAC(3)-II): 16
- Antibacterial activity AG173 E. coli AAC(3)-IV (AG173 E. coli AAC(3)-IV): 16-32
- Antibacterial activity AG163 E. coli APH(3′)-I (AG163 E. coli APH(3′)-I): 8-16
- Antibacterial activity AG038 MRSA (AG038 MRSA): 64
- Antibacterial activity AG039 MRSA AAC(6′)-I ANT(4′)-I [12]: 64
- Antibacterial activity AG042 MRSA AAC(6′)-I ANT(4′)-I APH(2′) [13]: 64
- Antibacterial activity AG031 P. aer. APH(3′)-II (AG031 P. aer. APH(3′)-II): 64-128
- Antibacterial activity AG032 P. aer. APH(3′)-II (AG032 P. aer. APH(3′)-II): 64-128
- Antibacterial activity AG033 P. aer. APH(3′)-II AAC(6′)-I [14]: 128
- Activity E. coli pH430 WT [15]: 4
- Activity E. coli AG103 armA [16]: 1
- Activity E. coli pH424 armA [17]: 2
- Activity E. coli pH425 rmtB [18]: 4
- Activity E. coli pH426 rmtC [19]: 4
- Activity E. coli pH427 rmtF [20]: 4

SMILES: CNC1C(OC2OC(CO)C(N)C(O)C2O)OC2CC(N)C(OC3C(N)CC(NC(=O)C(O)CCN)C(O)C3O)OC2C1O (centres unmarked) [DC176]
- MIC WT (WT clinical isolates; clinical isolates, IMM Univ. Zurich): 2 mg/L (≈ 3.12 µM)
- MIC AAC(3)-IV [1, 27]: 4 mg/L (≈ 6.24 µM)
- MIC apmA (isolates carrying apmA): 16 mg/L (≈ 25 µM)
- IC50 (bacterial ribosomes): 0.11 µM
- IC50 [5]: 166 µM
- IC50 [6]: 326 µM
- MIC AG212 E. coli [7]: 2 to 4 mg/L
- MIC AG215 K. pneumonia [8]: 2 mg/L
- MIC AG290 E. cloacae [9]: 4 mg/L
- MIC AG220 P. aeruginosa ([10]; reference strain ATCC27853): 16 mg/L
- MIC AG225 A. baumannii [11]: 8 mg/L
- MIC SZ380 M. smegmatis [21]: 0.5 mg/L
- MIC ATCC19977 M. abcessus (ATCC19977 M. abcessus; reference strain): 2 mg/L (≈ 3.12 µM)
- Antibacterial activity AG001 E. coli WT (AG001 E. coli WT): 4
- Antibacterial activity AG055 E. coli WT (AG055 E. coli WT): 8
- Antibacterial activity AG003 E. coli AAC(3)-II (AG003 E. coli AAC(3)-II): 4
- Antibacterial activity AG173 E. coli AAC(3)-IV (AG173 E. coli AAC(3)-IV): 2-4
- Antibacterial activity AG163 E. coli APH(3′)-I (AG163 E. coli APH(3′)-I): 4
- Antibacterial activity AG038 MRSA (AG038 MRSA): 4-8
- Antibacterial activity AG039 MRSA AAC(6′)-I ANT(4′)-I [12]: 4-8
- Antibacterial activity AG042 MRSA AAC(6′)-I ANT(4′)-I APH(2′) [13]: 8
- Antibacterial activity AG031 P. aer. APH(3′)-II (AG031 P. aer. APH(3′)-II): 16
- Antibacterial activity AG032 P. aer. APH(3′)-II (AG032 P. aer. APH(3′)-II): 32
- Antibacterial activity AG033 P. aer. APH(3′)-II AAC(6′)-I [14]: >32
- Activity E. coli pH430 WT [15]: 2
- Activity E. coli AG103 armA [16]: 0.25-0.5
- Activity E. coli pH424 armA [17]: 2
- Activity E. coli pH425 rmtB [18]: 2
- Activity E. coli pH426 rmtC [19]: 4
- Activity E. coli pH427 rmtF [20]: 4
- Activity E. coli AG153 AAC(3)-II APH(3′)-II rmtB [22]: 4
- Activity K. pneum. AG269 AAC(3)-II AAC(6′)-I rmtB [23]: 2
- Activity Enterob. AG302 AAC(3)-II AAC(6′)-I rmtC [24]: 2
- Activity A baum. AG227 APH(3′)-I armA [25]: 2

SMILES: NC[C@@H]1O[C@H](O[C@H]2[C@@H](O)[C@H](O[C@@H]3[C@@H](O)[C@H](N)C[C@H](N)[C@H]3O[C@H]3O[C@H](CO)[C@@H](O)[C@H](O)[C@H]3N)O[C@@H]2CO)[C@H](N)[C@@H](O)[C@@H]1O [paromomycin, reference compound]
- MIC (WT clinical isolates; read-out: MIC WT, clinical isolates, IMM Univ. Zurich): 1 to 2 mg/L (≈ 1.62 to 3.25 µM)
- MIC [1, 27]: 128 mg/L (≈ 208 µM)
- MIC [2]: > 128 mg/L
- MIC [3]: > 128 mg/L
- MIC [26]: > 128 mg/L
- MIC [4]: > 128 mg/L
- IC50 (bacterial ribosomes): 0.02 µM
- IC50 [5]: 86 µM
- IC50 [6]: 19 µM
